According to patent US10660967B2, “Curcumin conjugates and methods of use thereof” (priority 2016, dated 2020):
Where two headings read alike, the source gives them in different places.

Key:
[1] = system: gastric mucosa; assay: Ulcerogenic liability (ulcer index); format: in vivo, albino mice; settings: orally, three successive days, 10 mg/kg indomethacin mol equivalent; for Number of animals with ulcer: 6 animals per group; for Ulcer index: sum of the three values
Method in brief: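 Albino mice were fasted 18 h before dosing, and controls got saline with a few drops of Tween 80. Gastric mucosa was checked under a 10× lens for lesions and erosions. The ulcer index combines percentage incidence divided by 10, mean ulcers per stomach and mean severity.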

[2] = system: PHA-stimulated splenocytes; assay: Proliferative response of PHA-stimulated splenocytes (MTT assay); format: cell-based; settings: PHA 5 μg/ml, 72 hr; compounds at 5 μM (method says 10 μM); ratio of O.D. versus vehicle control
Method in brief: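 Readout was MTT absorbance (570 nm, reference 690 nm) after 72 h culture at 37° C. Splenocytes at 1×10^6 cells/well received test compound (10 μM final) alone or plus PHA 5 μg/ml as T-cell mitogen. Values are OD ratios of compound over vehicle control (stimulation index).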

[3] = system: Salmonella typhi ATCC19430; assay: Antimicrobial MIC, agar dilution; format: cell-based; settings: Salmonella enterica, read-out: Minimum inhibitory concentration (MIC)
[4] = system: MCF-7 cells; assay: Effect on doxorubicin induced cytotoxicity (MTT)
Method in brief: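 MCF-7 cells were exposed for 48 hr to 100 μM curcumin derivative alone or combined with 10 μM doxorubicin. Controls got medium, DMSO vehicle, or vehicle+doxorubicin. Percent viable cells was read by MTT assay.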

[5] = system: Staphylococcus aureus ATCC25923; assay: Antimicrobial MIC, agar dilution
[6] = system: Streptococcus pyogenes ATCC19615; assay: Antimicrobial MIC, agar dilution
[7] = system: Pseudomonas aeruginosa ATCC27853; assay: Antimicrobial MIC, agar dilution
[8] = system: A-549 (lung) carcinoma cell line; assay: Anti-tumor properties, MTT; format: cell-based; settings: Homo sapiens, A549
[9] = system: PC3 (prostate) carcinoma cell line; assay: Anti-tumor properties, MTT; format: cell-based; settings: Homo sapiens
[10] = ATCC25923, 18 h, read-out: Minimum inhibitory concentration (MIC)
[11] = ATCC25923, read-out: Minimum inhibitory concentration (MIC)
[12] = ATCC19615, 18 h, read-out: Minimum inhibitory concentration (MIC)
[13] = ATCC19615, read-out: Minimum inhibitory concentration (MIC)
[14] = ATCC27853, 18 h, read-out: Minimum inhibitory concentration (MIC)
[15] = ATCC27853, read-out: Minimum inhibitory concentration (MIC)

In the case of `COc1cc(/C=C/C(=O)CC(=O)/C=C/c2ccc(OC(=O)C(C)NC(=O)OCc3ccccc3)c(OC)c2)ccc1OC(=O)C(C)NC(=O)OCc1ccccc1` (racemic) [Cbz-DL-Ala-Cur, ((1E,6E)-3,5-dioxohepta-1,6-diene-1,7-diyl)bis(2-methoxy-4,1-phenylene) bis(2-(((benzyloxy)carbonyl)amino)propanoate)], the “% Incidence of ulcer divided by 10” value [1] is reported as 3.33, the “Average of ulcer number” value [1] is reported as 0.67 and the “Average severity of ulcer” value [1] is reported as 0.67. For the same compound, the “Number of animals with ulcer” value [1] was 2/6, the Ulcer index [1] was 4.67 and the “Stimulation Index (average ± SD)” value [2] was 1.18 ± 0.09. The MIC ([3]; 18 h) was 0.5 µg/mL, the MIC [3] was 0.642 µM and the “Percentage of viable cells MCF-7 (average ± SD)” value ([4]; 10 μM DOX in combination with 100 μM curcumin derivative, 48 hr) was 45.70 ± 2.23. It also gave a viability at 100 µM ([4]; Homo sapiens, MCF7, 48 h, read-out: Percentage of viable cells MCF-7 (average ± SD)) of 98.8 ± 4.55%, an MIC [5, 10] of 0.5 µg/mL and an MIC [5, 11] of 0.642 µM. It also gave an MIC [6, 12] of 0.125 µg/mL, an MIC [6, 13] of 0.161 µM and an MIC [7, 14] of 0.25 µg/mL. For the same compound, the MIC [7, 15] was 0.321 µM.

In the case of `COc1cc(/C=C/C(=O)CC(=O)/C=C/c2ccc(OC(=O)[C@H](N)CCSC)c(OC)c2)ccc1OC(=O)[C@H](N)CCSC.Cl.Cl` [HCl-D-Met-Cur, (2R,2′R)-1,1′-((((1E,6E)-3,5-dioxohepta-1,6-diene-1,7-diyl)bis(2-methoxy-4,1-phenylene))bis(oxy))bis(4-(methylthio)-1-oxobutan-2-aminium) chloride], the “% Incidence of ulcer divided by 10” value [1] is reported as 0, the “Average of ulcer number” value [1] is reported as 0 and the “Average severity of ulcer” value [1] is reported as 0. The “Number of animals with ulcer” value [1] was 0/6, the Ulcer index [1] was 0 and the “Stimulation Index (average ± SD)” value [2] was 1.01 ± 0.15. It also gave an MIC ([3]; 18 h) of 0.25 µg/mL, an MIC [3] of 0.355 µM and an IC50 [8] of 20 µM. It also gave an IC50 [9] of 41.5 µM, an MIC [5, 10] of 0.125 µg/mL and an MIC [5, 11] of 0.178 µM. For the same compound, the MIC [6, 12] was 0.25 µg/mL, the MIC [6, 13] was 0.355 µM and the MIC [7, 14] was 1 µg/mL. The MIC [7, 15] was 1.42 µM.
